Each structure is given as a SMILES string.

This is an account of results in patent US20240066027A1 (DOMAIN THERAPEUTICS, priority 2020, published 2024).

This experiment has as its target T1, human PAR-2 (hPAR-2) receptor expressed in HEK-293 T cells in an endogenous manner (Homo sapiens, UniProt P55085).
T1 construct: human PAR-2 (hPAR-2) receptor expressed in HEK-293 T cells in an endogenous manner; endogenous in cells; host or cells: HEK-293 T cells
T1 sequence (P55085 26-397): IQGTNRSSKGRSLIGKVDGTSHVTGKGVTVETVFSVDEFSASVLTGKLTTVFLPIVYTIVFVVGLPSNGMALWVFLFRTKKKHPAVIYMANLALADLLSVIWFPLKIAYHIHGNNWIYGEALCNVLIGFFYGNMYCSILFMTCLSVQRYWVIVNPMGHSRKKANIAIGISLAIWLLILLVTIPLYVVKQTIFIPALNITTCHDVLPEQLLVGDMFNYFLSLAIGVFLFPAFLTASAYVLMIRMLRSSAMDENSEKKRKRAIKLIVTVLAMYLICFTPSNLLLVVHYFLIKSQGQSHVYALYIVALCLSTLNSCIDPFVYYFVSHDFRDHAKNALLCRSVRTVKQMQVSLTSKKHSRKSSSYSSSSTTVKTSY
The experiment can be described thus: In vitro human PAR-2 functional antagonist activity using calcium assays (Fluo4AM, FLIPR Tetra). The format is cell-based. The following applies: HEK-293 T cells stimulated by an EC80 of the 2-Furoyl-LIGRLO-NH2 peptide after 10 min incubation with compound; 20 concentrations, duplicate, two independent experiments. The method in brief: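 Fluo4AM-loaded HEK-293 T cells were exposed to compound for 10 min to read agonist effect. They were then stimulated with an EC80 of 2-Furoyl-LIGRLO-NH2 and intracellular calcium was recorded for 5 more min on FLIPR. Antagonism was scored against buffer basal and EC80 agonist-alone signals.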

Take `CCOCC(C)(C)n1cc(-c2ccc(Cl)c(F)c2)c2ccc(C(=O)N3CCN(c4cc(C)c(C(=O)O)c(C)n4)CC3(C)C)nc21` [Example 126, 6-(4-(3-(4-chloro-3-fluorophenyl)-1-(1-ethoxy-2-methylpropan-2-yl)-1H-pyrrolo[2,3-b]pyridine-6-carbonyl)-3,3-dimethylpiperazin-1-yl)-2,4-dimethylnicotinic acid]: the 50% inhibitory concentration (IC50) (commonly the midpoint of a concentration-inhibition curve) was below 20 nM.

As for `O=C(c1ccc2c(-c3ccc(Cl)c(F)c3)cn(CC(F)(F)F)c2n1)N1CC2CCC(C1)O2` [Example 33, (8-oxa-3-azabicyclo[3.2.1]octan-3-yl)(3-(4-chloro-3-fluorophenyl)-1-(2,2,2-trifluoroethyl)-1H-pyrrolo[2,3-b]pyridin-6-yl)methanone], the IC50 was above 10000 nM.

Turning to `Cc1cc(NC(=O)C2CCN(C(=O)c3ccc4c(-c5ccc(Cl)c(F)c5)cn(C(C)(C)C)c4n3)CC2)nc(C)c1C(=O)O` [Example 123, 6-(1-(1-(tert-butyl)-3-(4-chloro-3-fluorophenyl)-1H-pyrrolo[2,3-b]pyridine-6-carbonyl)piperidine-4-carboxamido)-2,4-dimethylnicotinic acid], the 50% inhibitory concentration (IC50) lay within 20 to 10000 nM.

As to `Cc1cc(N[C@@H]2CCN(C(=O)c3ccc4c(-c5ccc(Cl)c(F)c5)cn(C(C)(C)C)c4n3)C2)nc(C)c1C(=O)O` [Example 153, (R)-6-((1-(1-(tert-butyl)-3-(4-chloro-3-fluorophenyl)-1H-pyrrolo[2,3-b]pyridine-6-carbonyl)pyrrolidin-3-yl)amino)-2,4-dimethylnicotinic acid], the concentration for half-maximal inhibition (IC50) is above 10000 nM.

On to `CN(C)C(=O)CN1CCN(C(=O)c2ccc3c(-c4ccc(Cl)c(F)c4)cn(C(C)(C)C)c3n2)C(C)(C)C1=O` [Example 7, 2-(4-(1-(tert-butyl)-3-(4-chloro-3-fluorophenyl)-1H-pyrrolo[2,3-b]pyridine-6-carbonyl)-3,3-dimethyl-2-oxopiperazin-1-yl)-N,N-dimethylacetamide], for which the IC50 was below 20 nM.

For `Cc1cc(N2CCN(C(=O)c3ccc4c(-c5ccc(Cl)c(F)c5)cn(C(C)(C)C)c4n3)[C@H](C)C2)nc(C)c1C(=O)O` [Example 130, (R)-6-(4-(1-(tert-butyl)-3-(4-chloro-3-fluorophenyl)-1H-pyrrolo[2,3-b]pyridine-6-carbonyl)-3-methylpiperazin-1-yl)-2,4-dimethylnicotinic acid], the 50% inhibitory concentration (IC50) is 20 to 10000 nM.

On to `CC(C)(C)n1cc(-c2ccc(Cl)c(F)c2)c2ccc(C(=O)N3CCS(=O)(=O)CC3)nc21` [Example 214, (1-(tert-butyl)-3-(4-chloro-3-fluorophenyl)-1H-pyrrolo[2,3-b]pyridin-6-yl)(1,1-dioxidothiomorpholino)methanone], for which the half-inhibitory concentration (IC50) fell in the range of 20 to 10000 nM.

Turning to `CC(C)Cn1cc(-c2cc3ccccc3o2)c2ccc(C(=O)N3CCNC(=O)C3(C)C)nc21` [Example 224, 4-(3-(benzofuran-2-yl)-1-isobutyl-1H-pyrrolo[2,3-b]pyridine-6-carbonyl)-3,3-dimethylpiperazin-2-one], the half-inhibitory concentration (IC50) is 20 to 10000 nM.

For the compound `CC(C)Cc1nn(-c2ccc(Cl)c(F)c2)c2ccc(C(=O)N3CCNC(=O)C3)nc12` [Example 88, 4-(1-(4-chloro-3-fluorophenyl)-3-isobutyl-1H-pyrazolo[4,3-b]pyridine-5-carbonyl)piperazin-2-one], the concentration for half-maximal inhibition (IC50) was above 10000 nM.

On to `CC[C@@H](C)n1cc(-c2ccc(Cl)c(F)c2)c2ccc(C(=O)N3CCN(c4cc(C)c(C(=O)O)c(C)n4)CC3(C)C)nc21` [Example 165, (R)-6-(4-(1-(sec-butyl)-3-(4-chloro-3-fluorophenyl)-1H-pyrrolo[2,3-b]pyridine-6-carbonyl)-3,3-dimethylpiperazin-1-yl)-2,4-dimethylnicotinic acid], for which the half-maximal inhibitory concentration (IC50) is below 20 nM.

Consider `CC1(C)C(=O)NCCN1C(=O)c1ccc2c(-c3ccc(Cl)c(F)c3)cn(C3CCOCC3)c2n1` [Example 30, 4-(3-(4-chloro-3-fluorophenyl)-1-(tetrahydro-2H-pyran-4-yl)-1H-pyrrolo[2,3-b]pyridine-6-carbonyl)-3,3-dimethylpiperazin-2-one], for which the 50% inhibitory concentration (IC50) was in the range of 20 to 10000 nM.

On to `CC(C)(C)n1cc(-c2ccc(Cl)c(F)c2)c2ccc(C(=O)N3CCC(C(=O)O)CC3)nc21` [Example 162, 1-(1-(tert-butyl)-3-(4-chloro-3-fluorophenyl)-1H-pyrrolo[2,3-b]pyridine-6-carbonyl)piperidine-4-carboxylic acid], for which the half-inhibitory concentration (IC50) was 20 to 10000 nM.

With `Cc1cc(NC2CCN(C(=O)c3ccc4c(-c5ccc(Cl)c(F)c5)cn(C(C)(C)C)c4n3)CC2C)nc(C)c1C(=O)O` (stereo not shown) [Example 198, 6-((1-(1-(tert-butyl)-3-(4-chloro-3-fluorophenyl)-1H-pyrrolo[2,3-b]pyridine-6-carbonyl)-3-methylpiperidin-4-yl)amino)-2,4-dimethylnicotinic acid], the IC50 is 20 to 10000 nM.

On to `Cc1ccc(-c2cn(CC(C)C)c3nc(C(=O)N4CCN(c5cc(C)c(C(=O)O)c(C)n5)CC4(C)C)ccc23)cc1F` [Example 142, 6-(4-(3-(3-fluoro-4-methylphenyl)-1-isobutyl-1H-pyrrolo[2,3-b]pyridine-6-carbonyl)-3,3-dimethylpiperazin-1-yl)-2,4-dimethylnicotinic acid], for which the half-inhibitory concentration (IC50) was below 20 nM.

With `Cc1cc(N2CCN(C(=O)c3ccc4c(-c5ccc(Cl)c(F)c5)cn(C[C@@H]5CCCO5)c4n3)C(C)(C)C2)nc(C)c1C(=O)O` [Example 211, (S)-6-(4-(3-(4-chloro-3-fluorophenyl)-1-((tetrahydrofuran-2-yl)methyl)-1H-pyrrolo[2,3-b]pyridine-6-carbonyl)-3,3-dimethylpiperazin-1-yl)-2,4-dimethylnicotinic acid], the half-inhibitory concentration (IC50) was below 20 nM.

In the case of `CC(C)(C)n1cc(-c2ccc(Cl)c(F)c2)c2ccc(C(=O)N3[C@@H]4CC[C@H]3CC(O)C4)nc21` (stereo partly drawn) [Example 11, (1-(tert-butyl)-3-(4-chloro-3-fluorophenyl)-1H-pyrrolo[2,3-b]pyridin-6-yl)((1R,3r,5S)-3-hydroxy-8-azabicyclo[3.2.1]octan-8-yl)methanone], the IC50 was above 10000 nM.

Consider `CC(C)Cn1cc(-c2ccc3ccccc3c2)c2ccc(C(=O)N3CCNC(=O)C3(C)C)nc21` [Example 226, 4-(1-isobutyl-3-(naphthalen-2-yl)-1H-pyrrolo[2,3-b]pyridine-6-carbonyl)-3,3-dimethylpiperazin-2-one], for which the concentration for half-maximal inhibition (IC50) lay in the range of 20 to 10000 nM.

As for `CC(C)Cn1cc(-c2ccc(Cl)cc2F)c2ccc(C(=O)N3CCNC(=O)C3(C)C)nc21` [Example 115, 4-(3-(4-chloro-2-fluorophenyl)-1-isobutyl-1H-pyrrolo[2,3-b]pyridine-6-carbonyl)-3,3-dimethylpiperazin-2-one], the IC50 fell in the range of 20 to 10000 nM.

`COc1ccc(-c2cn(CC(C)C)c3nc(C(=O)N4CCNC(=O)C4(C)C)ccc23)cc1OC` [Example 145, 4-(3-(3,4-dimethoxyphenyl)-1-isobutyl-1H-pyrrolo[2,3-b]pyridine-6-carbonyl)-3,3-dimethylpiperazin-2-one]: the concentration for half-maximal inhibition (IC50) was above 10000 nM.

Take `CC1(C)CN(c2ccc(C(=O)O)cn2)CCN1C(=O)c1ccc2c(-c3ccc(Cl)c(F)c3)cn(C(C)(C)C)c2n1` [Example 137, 6-(4-(1-(tert-butyl)-3-(4-chloro-3-fluorophenyl)-1H-pyrrolo[2,3-b]pyridine-6-carbonyl)-3,3-dimethylpiperazin-1-yl)nicotinic acid]: the IC50 is below 20 nM.

Take `CC(C)Cn1cc(-c2ccc(Cl)c(F)c2)c2ccc(C(=O)N3CCNC(=O)C3(C)C)nc21` [Example 29, 4-(3-(4-chloro-3-fluorophenyl)-1-isobutyl-1H-pyrrolo[2,3-b]pyridine-6-carbonyl)-3,3-dimethylpiperazin-2-one]: the IC50 was below 20 nM.

Take `Cc1cc(N2CCN(C(=O)c3ccc4c(n3)c(C(C)(C)C)nn4-c3ccc(Cl)c(F)c3)C(C)(C)C2)nc(C)c1C(=O)O` [Example 59, 6-(4-(3-(tert-butyl)-1-(4-chloro-3-fluorophenyl)-1H-pyrazolo[4,3-b]pyridine-5-carbonyl)-3,3-dimethylpiperazin-1-yl)-2,4-dimethylnicotinic acid]: the IC50 was below 20 nM.

Take `Cc1cc(N2CCN(C(=O)c3ccc4c(-c5ccc(Cl)c(F)c5)cn(CC5CC5)c4n3)C(C)(C)C2)nc(C)c1C(=O)O` [Example 160, 6-(4-(3-(4-chloro-3-fluorophenyl)-1-(cyclopropylmethyl)-1H-pyrrolo[2,3-b]pyridine-6-carbonyl)-3,3-dimethylpiperazin-1-yl)-2,4-dimethylnicotinic acid]: the 50% inhibitory concentration (IC50) is below 20 nM.

As for `CCOP(=O)(O)c1ccc(N2CCN(C(=O)c3ccc4c(-c5ccc(Cl)c(F)c5)cn(C(C)(C)C)c4n3)C(C)(C)C2)nc1` [Example 195, ethyl hydrogen (6-(4-(1-(tert-butyl)-3-(4-chloro-3-fluorophenyl)-1H-pyrrolo[2,3-b]pyridine-6-carbonyl)-3,3-dimethylpiperazin-1-yl)pyridin-3-yl)phosphonate], the 50% inhibitory concentration (IC50) is 20 to 10000 nM.

In the case of `CC(C)Cn1cc(-c2cc3cc(F)ccc3[nH]2)c2ccc(C(=O)N3CCNC(=O)C3(C)C)nc21` [Example 225, 4-(3-(5-fluoro-1H-indol-2-yl)-1-isobutyl-1H-pyrrolo[2,3-b]pyridine-6-carbonyl)-3,3-dimethylpiperazin-2-one], the IC50 lay in the range of 20 to 10000 nM.
